Assay results published in patent US20220257552A1, “METHODS OF PRESCREENING AND TREATING BREAST CANCERS WITH SELECTIVE ANDROGEN RECEPTOR MODULATORS” (priority 2021, published 2022).

How the values were obtained:
[1] = test system: HCC-38 triple negative breast cancer cells; assay: SRB cell viability, HCC-38 cells infected with AR adenovirus; type: cell-based; settings: 3 days
Protocol: The SRB assay was used to determine cell number during cytotoxocity experiments. The following protocol was used: • 1. Cells were detached with 0.25% trypsin. • 2. Experimental cultures were cultured in 96-well microtiter plates (200 μL growth medium per well; 1,000-200,000 cells per well). • 3. Cultures were fixed with 50 μL 50% TCA (4° C.). (see cell fixation protocol for details). • 4. Fixed cells were stained with 50 μL 0.4% (wt/vol) SRB in 1% acetic acid for 10 minutes. • 5. SRB was removed and the cultures were quickly* rinsed 5 times with 1% acetic acid to remove unbound dye.** • 6. Cultures were air-dried overnight until there was no visible moisture. • 7. The cellular protein-bound SRB was dissolved with 200 μL unbuffered Tris base (10 mM, pH 10.5) for 30 minutes on a rocking platform shaker. • 8. Absorbance was read at 540 nm. * quickly performing rinsing process was to prevent desorption of protein-bound SRB ** completely removed residual wash solution by sharply flicking plates over sink.
The following protocol was used for fixing cells: • a. 50 μL of 50% TCA (4° C.) was gently layered on the top of growth medium in each well to make a final TCA concentration of 10%. • b. Cultures were incubated at 4° C. for 1 hour. • c. Cultures were washed 5 times with tap water to remove TCA, growth medium, low-molecular-weight metabolites, and serum protein. • d. […]

BR-0001 TNBC = assay: BR-0001 AR-positive TNBC xenograft in NSG mice; type: in vivo
Protocol: Xenograft experiment. NSG mice obtained from JAX labs were housed with five animals per cage and were allowed free access to tap water and commercial rat chow (Harlan Teklad 22/5 rodent diet—8640). During the course of the study, the animals were maintained on a 12 hr light:dark cycle. Animals were anesthetized and BR-0001 TNBC fragments of 1 mm^3 (approximately) were implanted subcutaneously in NSG mice. […] Tumor volume was measured thrice weekly. Tumor volume was calculated using the formula length×width×width×0.5236. Once tumors reached greater than 1500-2000 mm^3, animals were sacrificed and tumors weighted and stored for various analysis. Two regions of the same BR-0001 tumor, an AR-positive TNBC xenograft, were immunohistochemically stained with AR antibody (AR N20 from SCBT) (FIGS. 26A and 26B) and compared to an AR-negative (FIG. 26C) TNBC as a negative control. […] The tumor xenograft efficacy experimental results are provided in 27A-27C, with FIGS. 27A and 27B being replicate experiments.
Tumors from replicate experiment 2 (FIG. 27B) were fixed in formalin and paraffin embedded. Slides were cut and stained with Ki-67 antibody. Ki-67 positive cells (total 200 cells were counted in each slide) in each slide were counted and represented as % stained cells, as shown in FIG. 28B.

HCI-13 tumors = assay: Phospho-proteomics of HCI-13 PDX tumors; parameters: species or system mice; settings: mouse, in vivo
Protocol: Whole tissue lysates were directly prepared from the tissue sections using a 1:1 mixture of T-PER (Tissue Protein Extraction Reagent; Pierce, Rockford, Ill.) and 2× Tris-Glycine SDS Sample Buffer (Invitrogen, Carlsbad, Calif.) supplemented with 5% 2-mercaptoethanol. Samples were boiled for 8 minutes and stored at −80° C. until arrayed.
Samples and standard curves for internal quality assurance were printed onto nitrocellulose-coated slides (Grace Bio-labs, Bend, Oreg.) using an Aushon 2470 arrayer (Aushon BioSystems, Billerica, Mass.). Selected arrays were used to estimate the amount of protein in each sample using a Sypro Ruby Protein Blot Stain (Molecular Probes, Eugene, Oreg.) protocol following manufacturer's instructions (Pin et al. (2014) Curr Protoc Prtein Sci 75, Unit 27 27). Remaining arrays were tested with a single primary antibody using an automated system (Dako Cytomation, Carpinteria, Calif.) as previously described (Baldelli et al. (2015) Oncotarget 6, 32368-32379). Arrays were first incubated with Reblot Antibody stripping solution (Chemicon, Temecula, Calif.), followed by two washes in PBS, and I-block solution (Tropix, Bedford, Mass.) for 4 hours. Arrays were probed with a total of 174 antibodies targeting a wide range of protein kinases and their activation via phosphorylation. Antibodies specificity was tested using standard immunoblotting on a panel of cell lysates. […]
The commercially available Signal Amplification System (CSA; Dako Cytomation) and a streptavidin-conjugated IRDye 680 secondary antibody (LI-COR Biosciences, Lincoln, Nebr.) were used as signal detection methods. Images were acquired on the laser-based PowerScanner (TECAN, Mönnedorf, Switzerland), and data were analyzed using the MicroVigene software Version 5.1 (Vigene Tech, Carlisle, Mass.) as previously described (Baldelli et al. (2015) Oncotarget 6, 32368-32379). […]

GR = target: T1, GR (Rattus norvegicus, UniProt P06536); assay: GR transactivation in HEK-293 cells; type: cell-based
T1 construct: expressed in transfected cells
Protocol: Rat GR, MR, PR, ER-α and ER-β were individually cloned into a pCR3.1 vector backbone. Sequencing was performed to verify the absence of any mutations. HEK-293 cells were plated at 90,000 cells per well of a 24 well plate in Dulbecco's Minimal Essential Media supplemented with 5% charcoal-stripped FBS. […] Luciferase assays were performed 48 h after transfection. Transcriptional activation values are represented as firefly luciferase normalized to renilla luciferase.

T1 sequence (P06536 whole entry): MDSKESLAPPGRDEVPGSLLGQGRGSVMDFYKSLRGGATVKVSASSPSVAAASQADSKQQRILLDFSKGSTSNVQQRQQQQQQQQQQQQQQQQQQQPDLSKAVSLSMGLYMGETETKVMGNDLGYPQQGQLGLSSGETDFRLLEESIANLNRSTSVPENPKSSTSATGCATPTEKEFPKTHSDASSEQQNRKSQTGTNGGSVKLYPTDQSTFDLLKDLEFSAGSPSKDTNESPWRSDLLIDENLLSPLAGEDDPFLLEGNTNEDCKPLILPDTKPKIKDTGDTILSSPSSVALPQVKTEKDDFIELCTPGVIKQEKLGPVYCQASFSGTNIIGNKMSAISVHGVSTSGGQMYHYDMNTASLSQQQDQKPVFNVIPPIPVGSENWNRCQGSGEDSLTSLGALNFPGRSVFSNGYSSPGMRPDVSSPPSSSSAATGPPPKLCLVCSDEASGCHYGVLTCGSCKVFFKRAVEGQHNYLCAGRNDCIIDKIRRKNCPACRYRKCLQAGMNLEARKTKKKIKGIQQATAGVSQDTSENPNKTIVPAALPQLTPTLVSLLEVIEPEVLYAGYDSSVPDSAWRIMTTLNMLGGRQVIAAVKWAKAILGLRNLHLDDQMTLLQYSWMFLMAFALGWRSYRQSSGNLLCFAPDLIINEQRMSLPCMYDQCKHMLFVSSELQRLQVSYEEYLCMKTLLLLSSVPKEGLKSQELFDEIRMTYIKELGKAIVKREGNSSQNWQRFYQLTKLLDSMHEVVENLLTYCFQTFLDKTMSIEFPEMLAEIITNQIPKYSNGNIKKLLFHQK

SMILES | cell growth [1] | tumor growth (BR-0001 TNBC; 10 mg/kg/day Formula IX or enzalutamide orally) | tumor weight reduction (BR-0001 TNBC; experiment 2) [%] | expression of proliferation marker Ki67 (HCI-13 tumors) | phosphorylation of oncogenic proteins (pERK, PKC z, RSK3, Ezrin, BCL2, ELF4G, ER) (HCI-13 tumors) | phosphorylation of tumor suppressor proteins (p53, p27, ACC, AR) (HCI-13 tumors) | GR-mediated transactivation, agonist mode (GR; all tested concentrations) | dexamethasone-induced GR-mediated transactivation, antagonist mode (GR; co-incubation)
C[C@](O)(COc1ccc(C#N)cc1)C(=O)Nc1ccc(C#N)c(C(F)(F)F)c1 [Formula IX, (S)—N-(4-Cyano-3-(trifluoromethyl)phenyl)-3-(4-cyanophenoxy)-2-hydroxy-2-methylpropanamide] | inhibited | some tumor growth inhibition | ~40 | inhibited the expression | inhibited the phosphorylation | increased the phosphorylation | – | –
C[C@](O)(COc1ccc(C#N)cc1)C(=O)Nc1ccc(C#N)c(Cl)c1 [Formula VIII, (S)—N-(3-chloro-4-cyanophenyl)-3-(4-cyanophenoxy)-2-hydroxy-2-methylpropanamide] | – | – | – | – | – | – | did not induce | failed to alter
